Consider nine molecules from PubChem BioAssay (NCI).

Test systems include A498 renal; ACHN renal; CCRF-CEM leukemia; COLO 205 colon; KM12 colon; LOX IMVI melanoma; NCI-H23 lung; RXF 393 renal; SK-MEL-28 melanoma; SN12C renal.
Holding throughout (experiment): inhibition of tumour cell growth, NCI panel, 48 h

Molecules are shown by their SMILES. Several values for one entry are separate records, joined by “and”; a condition that tells them apart may be missing. Equal entries are not always repeated.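 Dose response: 5 concentrations. Exposure: 48 h. Format: 96-well plates. Endpoint: linear interpolation; highest concentration if not reached. GI50: concentration for 50% inhibition of growth. Definition used: TGI = concentration required for complete inhibition of growth.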

On to `CC1(C)OC[C@@H]([C@@]2(CO[Si](c3ccccc3)(c3ccccc3)C(C)(C)C)CC=CC(=O)O2)O1`, for which the GI50 was 17.1 µM with A498 renal; 11.4 µM in the test on ACHN renal; 6.63 µM in the test with CCRF-CEM leukemia; 8.69 µM in the test with COLO 205 colon; 4.99 µM in the test on KM12 colon; 3.93 µM in the test with LOX IMVI melanoma. Moreover, the GI50 was 10.2 µM with NCI-H23 lung, 9.82 µM in the test on RXF 393 renal, 16.7 µM in the test with SK-MEL-28 melanoma and 5.39 µM in the test with SN12C renal. The TGI in the test with A498 renal was 34.2 µM; in the test on ACHN renal, 36.6 µM; with CCRF-CEM leukemia, > 100 µM; in the test with COLO 205 colon it was > 100 µM; in the test on KM12 colon, 56.3 µM; in the test on LOX IMVI melanoma, 21 µM. Moreover, the TGI with NCI-H23 lung was 40.2 µM; in the test on RXF 393 renal it was > 100 µM; with SK-MEL-28 melanoma, 48.3 µM; in the test with SN12C renal, 35.9 µM.
For the molecule `N#CC1(c2ccc(NC(=O)c3cccnc3NCc3ccncc3)cc2)CCCC1`, the GI50 in the test on A498 renal is 10.2 µM; in the test on ACHN renal, 12.4 µM; in the test on CCRF-CEM leukemia it was 12.9 µM; with COLO 205 colon, 7.43 µM; in the test on KM12 colon, 23 µM; with LOX IMVI melanoma it was 14.3 µM. The GI50 in the test with NCI-H23 lung is 12.8 µM; in the test on RXF 393 renal, 2.81 µM; in the test with SK-MEL-28 melanoma, 17.3 µM; in the test on SN12C renal, 18 µM. In addition, the TGI in the test on A498 renal is 60.9 µM; in the test with ACHN renal, > 70.9 µM; in the test on CCRF-CEM leukemia, > 95 µM; with COLO 205 colon, 33.5 µM; in the test with KM12 colon, 73 µM; with LOX IMVI melanoma, 29.2 µM. The TGI in the test on NCI-H23 lung was 41.8 µM; in the test on RXF 393 renal, 12.3 µM; in the test on SK-MEL-28 melanoma it was > 89.8 µM; in the test with SN12C renal it was > 100 µM.
With `COc1ccc2c(N)ncc(C#Cc3cc(C(=O)Nc4ccc(CN5CCN(C)CC5)c(C(F)(F)F)c4)cnc3C)c2c1`, the GI50 was 0.842 µM with A498 renal; 0.436 µM in the test on ACHN renal; 0.841 µM in the test with CCRF-CEM leukemia; 0.568 µM with COLO 205 colon; 0.079 µM in the test with KM12 colon; 0.505 µM in the test on LOX IMVI melanoma. The GI50 with NCI-H23 lung is 1.89 µM; in the test on RXF 393 renal, 0.502 µM; in the test with SK-MEL-28 melanoma, 0.66 µM; in the test with SN12C renal it was 0.594 µM. The TGI in the test with A498 renal was 3 µM; in the test on ACHN renal it was 1.15 µM; in the test with CCRF-CEM leukemia, 4.13 µM; in the test on COLO 205 colon it was 4.48 µM; in the test with KM12 colon, 2.64 µM; in the test with LOX IMVI melanoma, 1.08 µM. The TGI in the test with NCI-H23 lung was determined as 8.79 µM; with RXF 393 renal it was 1.11 µM; in the test on SK-MEL-28 melanoma, 1.81 µM; in the test with SN12C renal, 1.52 µM.
Regarding `O=C1NC(=O)c2c1n(Cc1ccccc1)c(=O)n2Cc1ccccc1`, the TGI was 77.9 µM in the test with A498 renal; > 100 µM in the test with ACHN renal; > 100 µM with CCRF-CEM leukemia; > 100 µM with COLO 205 colon; > 100 µM with KM12 colon; > 100 µM in the test on LOX IMVI melanoma. For the same molecule, the TGI in the test on NCI-H23 lung, in the test on RXF 393 renal, with SK-MEL-28 melanoma and with SN12C renal was > 100 µM each time.
With `C[C@]12CC[C@H]3[C@@H](CCC4=CC(=O)CC[C@@]43C)[C@@H]1CC[C@@H]2c1csc(N)n1`, the GI50 in the test with A498 renal was 2.51 µM; in the test on ACHN renal it was 6.4 µM; in the test on CCRF-CEM leukemia, 4.49 µM; in the test with COLO 205 colon, 3.57 µM; in the test on KM12 colon, 3 µM; in the test with LOX IMVI melanoma, 3.38 µM. The GI50 in the test on NCI-H23 lung was 2.85 µM; with RXF 393 renal, 10.8 µM; with SK-MEL-28 melanoma, 10 µM; in the test with SN12C renal, 3.57 µM. The TGI was determined as 12.4 µM in the test with A498 renal; 40.6 µM in the test with ACHN renal; 49 µM in the test on CCRF-CEM leukemia; 14.2 µM with COLO 205 colon; 11.6 µM in the test on KM12 colon; 15.9 µM in the test with LOX IMVI melanoma. Further, the TGI amounted to 19.9 µM in the test with NCI-H23 lung, 24.2 µM in the test on RXF 393 renal, 26 µM in the test on SK-MEL-28 melanoma and 24.5 µM in the test on SN12C renal.
Take `COC1N(C2CC(O)C(CO)O2)C(=O)NC(=O)C1(F)Br` (stereo not given): the GI50 was 0.821 µM in the test on A498 renal; 23.9 µM with ACHN renal; 27.6 µM in the test on CCRF-CEM leukemia; 42.6 µM in the test with COLO 205 colon; 30.4 µM with KM12 colon; 4.47 µM with LOX IMVI melanoma. Further, the GI50 in the test on NCI-H23 lung is 13.3 µM; with RXF 393 renal it was 37.2 µM; with SK-MEL-28 melanoma, 30 µM; with SN12C renal it was 15.6 µM. Moreover, the TGI was 50 µM and > 65 µM in the test on A498 renal; 50 µM and > 100 µM with ACHN renal; 50 µM and > 75.4 µM with CCRF-CEM leukemia; 50 µM and > 100 µM in the test with COLO 205 colon; 50 µM and > 100 µM in the test with KM12 colon; 50 µM and > 100 µM in the test on LOX IMVI melanoma. The TGI was 50 µM and > 100 µM with NCI-H23 lung; 50 µM and > 100 µM with RXF 393 renal; 50 µM and > 100 µM in the test on SK-MEL-28 melanoma; 50 µM and > 100 µM in the test with SN12C renal.
Consider `CCOC(=O)c1nc(C)oc1C(F)(F)F`, for which the TGI with A498 renal, in the test on ACHN renal, in the test on CCRF-CEM leukemia, in the test on COLO 205 colon, in the test with KM12 colon and in the test with LOX IMVI melanoma was > 100 µM each time. Besides, the TGI with NCI-H23 lung, in the test on RXF 393 renal, in the test with SK-MEL-28 melanoma and in the test on SN12C renal was > 100 µM each time.
Take `C[C@]12Cc3cn[nH]c3C(=O)C1CC[C@@H]1C2CC[C@@]2(C)C1CC[C@@H]2O` (stereo not given in full): the TGI with A498 renal, in the test with ACHN renal, in the test with CCRF-CEM leukemia, in the test with COLO 205 colon, in the test with KM12 colon and with LOX IMVI melanoma was > 100 µM throughout. The TGI with NCI-H23 lung, in the test on RXF 393 renal, in the test on SK-MEL-28 melanoma and in the test with SN12C renal was > 100 µM each time.
In the case of `N#CC1c2ccccc2C=CN1C(=O)CCCl` (stereo not given), the GI50 with A498 renal is 11.7 µM; in the test with ACHN renal it was 1.73 µM; with CCRF-CEM leukemia, 3.45 µM; in the test on COLO 205 colon, 2.48 µM; in the test on KM12 colon, 16.9 µM; with LOX IMVI melanoma it was 3.94 µM. Also, the GI50 in the test on NCI-H23 lung is 17.6 µM; in the test with RXF 393 renal, 11.8 µM; with SK-MEL-28 melanoma, 10.7 µM; in the test on SN12C renal, 15.6 µM. Further, the TGI was determined as 25.8 µM in the test with A498 renal; 3.22 µM in the test with ACHN renal; 21.2 µM in the test with CCRF-CEM leukemia; 5.65 µM in the test with COLO 205 colon; 42.6 µM in the test on KM12 colon; 13.4 µM in the test with LOX IMVI melanoma. Besides, the TGI with NCI-H23 lung was found to be 40.9 µM; in the test with RXF 393 renal, 25.9 µM; in the test with SK-MEL-28 melanoma, 24 µM; in the test on SN12C renal it was 34.9 µM.
